Measurements reported in ChEMBL document CHEMBL1201862, “PubChem BioAssay data set” (2004).
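Following 48 hours of exposure in 96-well plates, responses at five concentrations were used to interpolate endpoints linearly. The concentration for 50% growth inhibition is given as GI50.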 Activity calls are given as the source filed them. No stated cut-off is given here; in the data, active = GI50 up to about 1.1 µM and inactive = higher.

What was measured:
Assay in all cases: inhibition of tumour cell growth, NCI panel, 48 h
[1] = test system: UACC-62
[2] = test system: SK-MEL-2
[3] = test system: 786-0
[4] = test system: DLD-1
[5] = test system: HCT-116
[6] = test system: KM12
[7] = test system: M14
[8] = test system: HL-60
[9] = test system: SK-MEL-5
[10] = test system: UACC-257
[11] = test system: A498
[12] = test system: K562
[13] = test system: MOLT-4
[14] = test system: HOP-62
[15] = test system: NCI-H23
[16] = test system: RPMI-8226
[17] = test system: PC-3
[18] = test system: MDA-MB-435
[19] = test system: BT-549
[20] = test system: MDA-N

Row | Structure (SMILES) | GI50 [1] | GI50 [2] | GI50 [3] | GI50 [4] | GI50 [5] | GI50 [6] | GI50 [7] | GI50 [8] | GI50 [9] | GI50 [10] | GI50 [11] | GI50 [12] | GI50 [13] | GI50 [14] | GI50 [15] | GI50 [16] | GI50 [17] | GI50 [18] | GI50 [19] | GI50 [20]
1 | CN(C)c1ccc(/C=c2\sc3nnc(-c4cccnc4)n3c2=O)cc1 | > 100 µM (inactive) | > 100 µM (inactive) | > 100 µM (inactive) | > 100 µM (inactive) | > 100 µM (inactive) | > 100 µM (inactive) | > 100 µM (inactive) | > 100 µM (inactive) | > 100 µM (inactive) | > 100 µM (inactive) | > 100 µM (inactive) | > 100 µM (inactive) | > 100 µM (inactive) | > 100 µM (inactive) | > 100 µM (inactive) | > 100 µM (inactive) |  |  |  | 
2 | COc1ccc(/C=C2\CCC(CN(C)C)C2=O)cc1OC (stereo not drawn) | 5.46 µM (inactive) | 11.5 µM (inactive) | 3.34 µM (inactive) | 2.69 µM (inactive) | 2.3 µM (inactive) | 2.37 µM (inactive) | 6.87 µM (inactive) | 2.07 µM (inactive) | 10.1 µM (inactive) | 5.41 µM (inactive) | 14.6 µM (inactive) | 1.17 µM (inactive) | 1.29 µM (inactive) | 18.8 µM (inactive) | 7.82 µM (inactive) | 1.28 µM (inactive) | 7.55 µM (inactive) | 5.55 µM (inactive) | 5.43 µM (inactive) | 
3 | CN1S(=O)(=O)N(C)P12(N=P(CP(=NP13(N(C)S(=O)(=O)N1C)N(C)S(=O)(=O)N3C)(c1ccccc1)c1ccccc1)(c1ccccc1)c1ccccc1)N(C)S(=O)(=O)N2C | > 100 µM (inactive) | > 100 µM (inactive) | > 100 µM (inactive) | > 100 µM (inactive) | > 100 µM (inactive) | > 100 µM (inactive) | > 100 µM (inactive) | > 100 µM (inactive) | > 100 µM (inactive) | > 100 µM (inactive) | > 100 µM (inactive) | > 100 µM (inactive) | > 100 µM (inactive) | > 100 µM (inactive) | > 100 µM (inactive) | > 100 µM (inactive) |  |  |  | 
4 | C=CC[P@@]1(=O)O[C@H](c2ccccc2)C(C)N1C(C)C (stereo partly drawn) | > 100 µM (inactive) |  | > 100 µM (inactive) | > 100 µM (inactive) |  | > 100 µM (inactive) | > 100 µM (inactive) | > 100 µM (inactive) | > 100 µM (inactive) |  | > 100 µM (inactive) | > 100 µM (inactive) | > 100 µM (inactive) |  | > 100 µM (inactive) | > 100 µM (inactive) |  |  |  | 
5 | CN1c2c(O)nc(N)nc2NCC1CCNc1ccc(C(=O)NC(CCC(=O)O)C(=O)O)cc1 (stereo not drawn) | 133 µM (inactive) | 1470 µM (inactive) | 4.59 µM (inactive) | 891 µM (inactive) | 28.8 µM (inactive) | 916 µM (inactive) | 10.3 µM (inactive) | 48.1 µM (inactive) | 1120 µM (inactive) | 1030 µM (inactive) | 948 µM (inactive) | 4.13 µM (inactive) | 33 µM (inactive) | 467 µM (inactive) | 1640 µM (inactive) | 141 µM (inactive) | 7.16 µM (inactive) | 104 µM (inactive) | 1440 µM (inactive) | 112 µM (inactive)
6 | COc1cc(/C=C/c2ccc(OC(C)=O)cc2)cc(OC)c1OC | 15.4 µM (inactive) |  | 25.4 µM (inactive) | 32.3 µM (inactive) | 26.9 µM (inactive) | 32 µM (inactive) | 27.9 µM (inactive) | 12.4 µM (inactive) | 18.6 µM (inactive) | 33.4 µM (inactive) | 23.6 µM (inactive) | 27.1 µM (inactive) | 16.7 µM (inactive) | 45.7 µM (inactive) |  | 19.1 µM (inactive) |  |  |  | 
7 | CCCCCCCC(=O)OC(CBr)COC(=O)C(C)(C)C (stereo not drawn) | > 100 µM (inactive) | > 100 µM (inactive) | > 100 µM (inactive) | > 100 µM (inactive) | > 63.4 µM (inactive) | > 100 µM (inactive) | > 100 µM (inactive) | 38 µM (inactive) | > 100 µM (inactive) | > 100 µM (inactive) | > 100 µM (inactive) | 32.5 µM (inactive) | 28.9 µM (inactive) | > 100 µM (inactive) | > 100 µM (inactive) | 21.6 µM (inactive) |  |  |  | 
8 | O=C1C=C(Br)C(=O)C(Br)=C1 | > 100 µM (inactive) | > 100 µM (inactive) | > 100 µM (inactive) | > 96.6 µM (inactive) | > 84.9 µM (inactive) | > 100 µM (inactive) | > 100 µM (inactive) | 20.3 µM (inactive) | > 100 µM (inactive) | > 100 µM (inactive) | > 100 µM (inactive) | 33.3 µM (inactive) | 33.7 µM (inactive) | > 100 µM (inactive) | > 100 µM (inactive) | 37.6 µM (inactive) |  |  |  | 
9 | CSc1nc(NC2OCC(OC(C)=O)C(OC(C)=O)C2OC(C)=O)c(/N=C\C=N\c2c(NC3OCC(OC(C)=O)C(OC(C)=O)C3OC(C)=O)nc(SC)n(C)c2=O)c(=O)n1C (stereo not drawn) | > 100 µM (inactive) | > 100 µM (inactive) | > 100 µM (inactive) | > 100 µM (inactive) | > 100 µM (inactive) | > 100 µM (inactive) | > 100 µM (inactive) | > 100 µM (inactive) | > 100 µM (inactive) | > 100 µM (inactive) | > 100 µM (inactive) | > 100 µM (inactive) |  | > 100 µM (inactive) | > 100 µM (inactive) | > 100 µM (inactive) |  |  |  | 
10 | CC(C)=CC(=O)c1c(C(=O)O)nc2ccccc2[n+]1[O-] | > 100 µM (inactive) | > 100 µM (inactive) | > 100 µM (inactive) | > 100 µM (inactive) | > 100 µM (inactive) | > 100 µM (inactive) | > 100 µM (inactive) | > 100 µM (inactive) | > 100 µM (inactive) | > 100 µM (inactive) | > 100 µM (inactive) | > 100 µM (inactive) | > 100 µM (inactive) | > 100 µM (inactive) | > 100 µM (inactive) | > 100 µM (inactive) |  |  |  | 
11 | O=[N+]([O-])C1(CO)COC2(OC1)c1ccccc1-c1ccccc12 | > 100 µM (inactive) | > 100 µM (inactive) | 63.8 µM (inactive) | 36 µM (inactive) | 35.3 µM (inactive) | > 100 µM (inactive) | 54.7 µM (inactive) | 21.9 µM (inactive) | > 100 µM (inactive) | 79.8 µM (inactive) | > 100 µM (inactive) | 64.7 µM (inactive) | 53.2 µM (inactive) | > 100 µM (inactive) | > 100 µM (inactive) | 23.8 µM (inactive) | > 74.8 µM (inactive) | > 100 µM (inactive) | > 53.6 µM (inactive) | > 64 µM (inactive)
12 | COc1cc(/C=C\c2ccccc2)cc(OC)c1OC | 2.49 µM (inactive) | 4.07 µM (inactive) | 5.08 µM (inactive) | 3.19 µM (inactive) | 4.78 µM (inactive) | 4.04 µM (inactive) | 2.51 µM (inactive) | 1.75 µM (inactive) | 3.08 µM (inactive) | 5.14 µM (inactive) | 5.24 µM (inactive) | 0.514 µM (active) | 3.7 µM (inactive) | 2.9 µM (inactive) | 4.13 µM (inactive) | 4.18 µM (inactive) |  |  |  | 
13 | Cc1ccc(C(=O)O/N=C2/CCC/C2=C\c2ccccc2)cc1 | > 100 µM (inactive) | > 100 µM (inactive) | > 100 µM (inactive) | > 100 µM (inactive) | > 100 µM (inactive) | > 100 µM (inactive) | > 100 µM (inactive) | > 100 µM (inactive) | > 100 µM (inactive) | > 100 µM (inactive) | > 100 µM (inactive) | > 100 µM (inactive) | > 100 µM (inactive) | > 100 µM (inactive) | > 100 µM (inactive) | > 100 µM (inactive) |  |  |  | 
14 | c1coc(CNc2[nH]cnc3nncc2-3)c1 | > 100 µM (inactive) | > 100 µM (inactive) | > 100 µM (inactive) | > 100 µM (inactive) | > 100 µM (inactive) | > 100 µM (inactive) | > 100 µM (inactive) | 87.9 µM (inactive) | > 100 µM (inactive) | > 100 µM (inactive) | > 100 µM (inactive) | 57.8 µM (inactive) | > 100 µM (inactive) | > 100 µM (inactive) | 79.6 µM (inactive) | 73.8 µM (inactive) |  |  |  | 
15 | OCC[N+]12CCCN1CCC2 | > 100 µM (inactive) | > 100 µM (inactive) | > 100 µM (inactive) | > 100 µM (inactive) | > 100 µM (inactive) | > 100 µM (inactive) | > 100 µM (inactive) | > 100 µM (inactive) | > 100 µM (inactive) | > 100 µM (inactive) | > 100 µM (inactive) | > 100 µM (inactive) | > 100 µM (inactive) | > 100 µM (inactive) | > 100 µM (inactive) |  |  |  |  | 
16 | CC(C)(C)OP(=O)(OC(C)(C)C)C(O)c1ccc(/C=C(\C#N)C(N)=O)cc1 (stereo not drawn) | > 100 µM (inactive) | > 100 µM (inactive) | > 100 µM (inactive) | > 100 µM (inactive) | > 100 µM (inactive) | > 100 µM (inactive) | > 100 µM (inactive) | 38.9 µM (inactive) |  | > 100 µM (inactive) | > 100 µM (inactive) | > 100 µM (inactive) | > 100 µM (inactive) | > 100 µM (inactive) | > 100 µM (inactive) | > 100 µM (inactive) |  |  |  | 
